{"source": "paper PMC4621896", "about": "(Oncotarget, 2015)", "key": {"[1]": {"target": "YopH protein tyrosine phosphatase from Yersinia pestis (Yersinia pestis, UniProt O68720)", "sequence (O68720 1-468)": "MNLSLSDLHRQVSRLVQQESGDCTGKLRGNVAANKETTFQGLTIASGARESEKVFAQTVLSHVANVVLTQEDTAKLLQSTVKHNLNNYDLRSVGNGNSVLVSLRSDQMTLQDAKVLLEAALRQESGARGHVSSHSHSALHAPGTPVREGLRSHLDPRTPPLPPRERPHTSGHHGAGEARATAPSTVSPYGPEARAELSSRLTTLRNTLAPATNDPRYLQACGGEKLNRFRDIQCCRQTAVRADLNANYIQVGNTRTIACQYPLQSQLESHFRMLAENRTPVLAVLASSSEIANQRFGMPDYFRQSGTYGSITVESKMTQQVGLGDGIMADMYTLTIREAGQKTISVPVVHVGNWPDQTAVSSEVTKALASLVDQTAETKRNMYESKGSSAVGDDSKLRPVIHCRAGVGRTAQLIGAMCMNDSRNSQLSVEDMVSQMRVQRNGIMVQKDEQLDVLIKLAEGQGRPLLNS", "assay": "biochemical"}, "YopH [2]": {"target": "T1, YopH (Yersinia enterocolitica, UniProt P15273)", "T1 sequence (P15273 whole entry, looked up)": "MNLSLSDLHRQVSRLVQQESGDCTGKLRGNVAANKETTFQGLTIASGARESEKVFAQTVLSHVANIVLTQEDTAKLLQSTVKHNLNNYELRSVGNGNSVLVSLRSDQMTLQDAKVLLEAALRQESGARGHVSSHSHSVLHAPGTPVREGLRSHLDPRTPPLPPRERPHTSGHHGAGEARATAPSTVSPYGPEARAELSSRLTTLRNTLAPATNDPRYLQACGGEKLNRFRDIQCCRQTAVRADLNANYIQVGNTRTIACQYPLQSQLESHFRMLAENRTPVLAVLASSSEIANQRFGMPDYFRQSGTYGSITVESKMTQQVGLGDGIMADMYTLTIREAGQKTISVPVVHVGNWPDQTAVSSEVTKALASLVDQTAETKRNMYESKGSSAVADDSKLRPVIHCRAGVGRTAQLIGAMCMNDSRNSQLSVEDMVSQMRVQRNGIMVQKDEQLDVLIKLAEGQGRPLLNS", "type": "biochemical"}, "YopH Y. enterocolitica": {"target": "YopH Y. enterocolitica (Yersinia enterocolitica, UniProt P15273)", "sequence (P15273 whole entry, looked up)": "as above", "type": "biochemical"}, "YopH [3]": {"target": "T1, YopH", "type": "biochemical", "remark": "listed apart in the source"}, "Human recombinant CD45": {"target": "T2, Human recombinant CD45 (Homo sapiens, UniProt P08575)", "T2 construct": "purchased Sigma-Aldrich", "T2 sequence (P08575 609-1306 limits assumed)": "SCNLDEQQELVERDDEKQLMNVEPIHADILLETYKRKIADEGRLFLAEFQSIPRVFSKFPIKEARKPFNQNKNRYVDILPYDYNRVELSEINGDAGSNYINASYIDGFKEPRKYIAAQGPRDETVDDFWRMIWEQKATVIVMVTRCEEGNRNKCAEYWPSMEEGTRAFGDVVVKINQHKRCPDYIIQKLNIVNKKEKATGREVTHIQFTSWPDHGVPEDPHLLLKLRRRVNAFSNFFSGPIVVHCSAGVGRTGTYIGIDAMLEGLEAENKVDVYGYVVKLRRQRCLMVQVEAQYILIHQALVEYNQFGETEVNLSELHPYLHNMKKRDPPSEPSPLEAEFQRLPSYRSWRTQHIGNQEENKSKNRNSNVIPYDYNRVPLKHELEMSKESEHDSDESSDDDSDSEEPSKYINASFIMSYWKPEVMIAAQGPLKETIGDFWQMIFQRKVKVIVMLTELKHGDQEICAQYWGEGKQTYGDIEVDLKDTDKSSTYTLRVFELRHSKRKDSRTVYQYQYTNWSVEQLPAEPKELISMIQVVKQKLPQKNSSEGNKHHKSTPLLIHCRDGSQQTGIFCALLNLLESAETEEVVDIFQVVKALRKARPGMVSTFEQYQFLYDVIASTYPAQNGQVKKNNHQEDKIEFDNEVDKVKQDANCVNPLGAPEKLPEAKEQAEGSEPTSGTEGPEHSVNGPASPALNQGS", "assay": "biochemical"}, "[4]": {"target": "YopH from Yersinia enterocolitica (Yersinia enterocolitica, UniProt P15273)", "sequence (P15273 whole entry, looked up)": "as the sequence (P15273 whole entry, looked up) above", "assay": "biochemical"}}, "note": "Read-outs that look alike come from different tables or passages of the source."}
{"compound": "O=C(O)C1=CC(=C(c2ccc(O)c(C(=O)O)c2)c2ccc(O)c(C(=O)O)c2)C=CC1=O", "note": "[ATA, aurintricarboxylic acid]", "values": [{"measurement": "IC50", "setting": "[1]", "value": 10, "unit": "nM"}, {"measurement": "Effect of catalase pretreatment on ATA induced YopH inactivation", "setting": "YopH [2]", "value": "almost completely protected"}, {"measurement": "Reversibility of ATA induced inhibition of YopH", "setting": "YopH Y. enterocolitica", "value": "completely reversed"}, {"measurement": "Effect of catalase on ATA induced decrease of thiol adducts", "setting": "YopH [3]", "value": "completely prevented"}, {"measurement": "Reduction of thiol-NBD adducts compared to control", "setting": "YopH [3]", "value": "over 50%"}, {"measurement": "Effect of catalase pretreatment on ATA induced CD45 inactivation", "setting": "Human recombinant CD45", "value": "almost completely protected"}, {"measurement": "IC50", "setting": "Human recombinant CD45", "value": 200, "unit": "nM"}, {"measurement": "IC50", "setting": "[4]", "value": 100, "unit": "nM"}]}
{"compound": "CCCCCCCC(=O)OO", "note": "[peroctanoic acid]", "values": [{"measurement": "IC50", "setting": "[1]; read-out: IC50 value, YopH Y.pestis inhibition", "value": 41, "unit": "nM"}, {"measurement": "IC50", "setting": "Human recombinant CD45; read-out: IC50 value, CD45 inhibition", "value": 25, "unit": "nM"}, {"measurement": "IC50", "setting": "[4]; read-out: IC50 value, YopH Y.entorocolitica inhibition", "value": 39, "unit": "nM"}]}
